What was measured:
Assay in all cases: relative viability (nuclei count vs DMSO), 5 days (fraction); higher = more cells survive
[1] = compound: CC1(COc2ccc3c(c2)ncn3-c2ccc3cccc(N4CCC(N)CC4)c3n2)COC1 [Crenolanib] + O=C(c1cc(Cc2n[nH]c(=O)c3ccccc23)ccc1F)N1CCN(C(=O)C2CC2)CC1 [Olaparib] (partner 8 µM)
Outline: (§1)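 Relative viability divides the nuclei count in treated wells by that in vehicle wells. Lung cancer cell lines were seeded in 1536-well plates, dosed by pin tool the next day, and fixed and stained after 5 days in one step with final 0.05% Triton X-100, 1% formaldehyde and 1 ug/ml Hoechst. Dosing was a single drug or a fixed anchor-drug dose plus five library-drug doses (not always all listed) in √10 steps, and values are medians of duplicate plates imaged at 4×.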

[2] = compound: O=C1NC(=O)[C@@H](c2cn3c4c(cccc24)CCC3)[C@@H]1c1c[nH]c2ccccc12 [Tivantinib] + CS(=O)(=O)N1CCN(Cc2cc3nc(-c4cccc5[nH]ncc45)nc(N4CCOCC4)c3s2)CC1 [Pictilisib] (partner 1 µM)
Outline: as §1

[3] = compound: O=C1NC(=O)[C@@H](c2cn3c4c(cccc24)CCC3)[C@@H]1c1c[nH]c2ccccc12 [Tivantinib] + O=C(c1cc(Cc2n[nH]c(=O)c3ccccc23)ccc1F)N1CCN(C(=O)C2CC2)CC1 [Olaparib] (partner 8 µM)
Outline: as §1

[4] = compound: CC1(COc2ccc3c(c2)ncn3-c2ccc3cccc(N4CCC(N)CC4)c3n2)COC1 [Crenolanib] + Cc1nc(Nc2ncc(C(=O)Nc3c(C)cccc3Cl)s2)cc(N2CCN(CCO)CC2)n1 [Dasatinib] (partner 0.075 µM)
Outline: as §1

UMC-11 was tested, and the relative viability ([1]; first compound 0.01 µM) was 0.394, the relative viability ([1]; first compound 0.03162 µM) was 0.35 and the relative viability ([1]; first compound 0.1 µM) was 0.379. The relative viability ([1]; first compound 0.3162 µM) was 0.556, the relative viability ([1]; first compound 1 µM) was 0.341 and the relative viability ([2]; first compound 0.01 µM) was 0.733. It also gave a relative viability ([2]; first compound 0.03162 µM) of 0.423, a relative viability ([2]; first compound 0.1 µM) of 0.75 and a relative viability ([2]; first compound 0.3162 µM) of 0.954. It also gave a relative viability ([3]; first compound 0.01 µM) of 0.354, a relative viability ([3]; first compound 0.03162 µM) of 0.341 and a relative viability ([3]; first compound 0.1 µM) of 0.365. It also gave a relative viability ([3]; first compound 0.3162 µM) of 0.362, a relative viability ([4]; first compound 0.01 µM) of 0.45 and a relative viability ([4]; first compound 0.03162 µM) of 0.52. For the same cell line, the relative viability ([4]; first compound 0.1 µM) was 0.427, the relative viability ([4]; first compound 0.3162 µM) was 0.506 and the relative viability ([4]; first compound 1 µM) was 0.481.

— the supplement of paper PMC10307832
